“Also recorded” adds a separate entry of the source.
How the values were obtained:
[1] = system: stomata; assay: Stomatal aperture in epidermal leaf peels; assay type: cell-based, Arabidopsis
Experimental: (§1) Five- to six-week-old plants were used to prepare epidermal peels. ABA at a concentration of 20 μM in water was root fed to hydroponically grown plants or sprayed onto leaves using a Studio Series IS-875 with a 0.5 mm nozzle opening (Iwata). We investigated if PAP accumulation in the double mutants could affect the production of NO during ABA-induced stomatal closure by treating epidermal peels with the inhibitor of NO synthase N(G)-methyl-L-arginine (NMA). For the investigation of the effect of different chemicals on stomatal closure, 20 μM ABA (Sigma-Aldrich), 100 mM LiCl, or 1 mM ATP, 1 mM or 100 μM PAP (Sigma-Aldrich) alone or in different combinations were prepared in infiltration buffer (1 mM PIPES KOH pH 6.0, 1 mM Sodium citrate, 1 mM KCl, 15 mM Sucrose) modified from a cordycepin infiltration buffer.
Measurements of stomatal aperture were performed with epidermal strips taken from five- to six-week-old plants. Fully developed leaves were cut and placed with their adaxial side onto cello tape. The vein was removed by razor blade and the abaxial epidermis was subsequently peeled off by using another strip of cello tape. To promote stomatal opening, the peels left adhered to the Scotch (810D Magic Tape, ¾ inch, 3M) were placed in petri dishes filled with stomatal opening solution (10 mM MES, 5 mM KCl, 50 μM CaCl2, pH 6.5) and incubated for 2 h at 22° C. under 150-200 μmol photons m^−2 s^−1 of light. Once the stomata were fully open, strips were maintained in the opening buffer or treated with various compounds according to the experiment. After treatment, photographs of stomata were taken using Leica microscope (Leica Microsystems, Wetzlar, Germany) at 20×. Stomatal aperture was measured using the image-processing software ImageJ. For stomatal aperture measurements, the ratio of stomatal pore width and length was used instead of width as this normalizes the pores of stomata of different size. Small stomata with a stomatal pore length of less than 7.5 μm were discarded. For each data point, 90 stomata were measured in 3 independent experiments. In each experiment, 10 stomata were measured in 3 epidermal strips per sample per treatment.
(§2) Measurements of stomatal closure in response to ABA, PAP, cordycepin and ATP treatments were performed on epidermal strips from Arabidopsis and barley plants grown under specific conditions. Plants were grown under high humidity (approximately 80% RH) and 12 h/12 h and 22/20° C. light/dark cycle in a growth chamber. Epidermal peels of newly expanding true leaves of three to four-week old plants. Stomatal apertures were measured in epidermal peels of newly expanded leaves. Peels were taken from the abaxial leaf surface and were fixed to the glass bottom of the experimental chamber after coating the chamber surface with an optically clear and pressure-sensitive silicon adhesive (Factor II, Tucson, USA). The attached epidermal peel is subsequently immersed in an opening buffer (OB: 50 mM KCl, 5 mM MES titrated to pH 6.1 with NaOH) and incubated, at plant growth conditions, for approximately 2 h. Stomatal images were taken using a bright-field microscope capable of 400× magnification for 10 minutes in OB and subsequently in Measuring Buffer [MB: 10 mM KCl, 5 mM MES titrated to pH 6.1 with Ca(OH)2] or PAP or cordycepin or ABA (dissolved in MB) for another 50 min. In total this was a 60 minute time course and images of the epidermal section were taken every 5 minutes using NIS Elements software (Nikon, Japan). Stomata aperture width and length were measured using Image J (NIH, USA). The pore area of each stomate was calculated using these values under the assumption that the area of a stomatal pore was that of an ellipse. Data are expressed as percentage over the control.

[2] = system: stomata; assay: Stomatal aperture in barley leaf epidermal peels; assay type: cell-based; details: exogenous PAP 100 μM
Experimental: as §2, with “Stomatal images were taken using a bright-field microscope capable of 400× magnification for 10 minutes in OB and subsequently in Measuring Buffer [MB: 10 mM KCl, 5 mM MES titrated to pH 6.1 with Ca(OH)2] or PAP or cordycepin or ABA (dissolved in MB) for another 50 min. In total this was a 60 minute time course and images of the epidermal section were taken every 5 minutes using NIS Elements software (Nikon, Japan).” left out

[3] = system: seeds; assay: Seed germination assay; assay type: in vivo, Arabidopsis
Experimental: Seeds used for germination assays were 3-months-old and all from seed stocks produced and harvested from plants grown under identical conditions at the same time. Seeds were sterilized and grown on 0.8% (w/v) agar plates containing Murashige-Skoog (MS) nutrients and 2% (w/v) sucrose. Different combinations of 0, 1 μM ABA, 0, 0.5 μM paclobutrazol and/or 0, 100, 500 and 1000 μM PAP were supplemented into the media using the infiltration buffer. At least 70-100 seeds from each genotype were plated on the same plate for efficient comparison. The seeds were stratified at 4° C. in the dark for 48 h before transfer to a growth cabinet and grown at 22° C. under 24-h light (100 μmol photons m^−2 s^−1) unless stated otherwise. The germination was scored after 3 days as the emergence of the radicle through the seed coat and the germination rate was calculated as the percentage of the total number of seeds per treatment with five replicates for each treatment. The experiment was repeated twice and statistical analyses are described below.

[4] = system: guard cells; assay: ROS accumulation in guard cells of epidermal peels; assay type: cell-based, Arabidopsis; details: wild type, ost1-2 and ost1-2 alx8
Experimental: The ABA- and PAP-induced accumulation of ROS in guard cells of epidermal peels was measured using dichlorofluorescein diacetate (H2DCFDA, Invitrogen). After 2 h of incubation in OB, the epidermal peel was incubated with 20 μM dye dissolved in DMSO and MB for 30 min, and then rinsed with MB three times. Epidermal peels were incubated in ABA or PAP dissolved in MB (or MB only as a negative control) for 10 min. Fluorescence images were taken using a Leica inverted confocal microscope controlled by the LAS AF software (Leica Microsystems, Germany). We used the 496-nm excitation line of an argon multiline laser. H2DCFDA fluorescence emission was detected at 505 to 525 nm. Chloroplast fluorescence was detected at 680 to 700 nm in order to separate the autofluorescence of chlorophyll in guard cells. Images were quantified with Image J software (National Institutes of Health, USA). The background signal was measured from the empty region of the similar size and subtracted from the stomata signal to obtain corrected total stomatal fluorescence values. Each stomate was considered to represent a single biological unit and thus fluorescence values were averaged across all stomata at each time point for each treatment. At least three biological replicates were measured for each treatment.

[5] = PAP accumulation in leaves after petiole feeding; assay type: in vivo, Arabidopsis; details: petiole feeding of PAP for 1 h, alone or co-applied with LiCl or ATP
Experimental: as §1
Total adenosines were extracted with 0.1 M HCl, derivatization with chloroacetaldehyde and quantified fluorometrically after HPLC fractionation. 3′-phosphoadenosine 5′-phosphate (PAP) quantification was performed by integrating the HPLC peak area and converting these to pmol units using standard curves of 1, 5 and 10 pmol standard.

[6] = system: guard cells; assay: Ion fluxes (K+, Cl- and Ca2+) in guard cells; assay type: cell-based, Arabidopsis; details: wild type, ost1-2, alx8 and ost1-2 alx8

Nc1ncnc2c1ncn2[C@@H]1O[C@H](COP(=O)(O)O)[C@@H](OP(=O)(O)O)[C@H]1O [PAP, 3′-phosphoadenosine 5′-phosphate]
magnitude and rate of ABA-mediated stomatal closure with added PAP ([1]; PAP together with ABA): further enhanced
stomatal closure in leaf peels ([1]; leaf peels of wild type plants, 1 hr, PAP 100 μM, ABA 100 μM, cordycepin 10 μM): elicited rapid stomatal closure similar to the ABA response; also recorded: nearly identical to that of ABA
stomatal conductance in barley [2]: regulates stomatal conductance in barley
ABA responsiveness of germination in abi1-1 ([3]; abi1-1 seeds, addition of PAP alone): restored ABA responsiveness in abi1-1
seed germination / dormancy ([3]; wild type seeds, exogenous PAP in conjunction with exogenous ABA (1 μM) or lower GA): extended the dormancy of seeds; also recorded: repress germination in wild type seeds in a dose-dependent manner
ROS burst in guard cells [4]: phenocopying of the timing and extent of the ABA-induced ROS burst
accumulation of PAP in leaves [5]: results in accumulation of PAP in leaves
ion fluxes [6]: mediated similar rapid changes in ion fluxes in all genotypes

— patent US20180355369A1, “Method for Increasing Plant Stress Tolerance and Seed Dormancy” (The Australian National University, priority 2015, published 2018)
